The record followed here is US20150150787A1 (Pearl Therapeutics, Inc., priority 2013, published 2015).

Series [1] can be described thus: Aerosol performance by Next Generation Impactor, BD/GP/FF cosuspension MDIs (Example 2). It is filed as physicochemical. The note with it: NGI 30 LPM, versus mono/dual cosuspensions or other strengths.
Method: The aerosol performance of each of the triple cosuspension compositions was evaluated and compared to the aerosol performance provided by the GFF, BFF, and BD Mono cosuspensions. Aerosol performance and aerodynamic particle size distributions were obtained using the Next Generation Impactor (NGI) with the flow rate set to 30±1 LPM (n=3).
A short description of series [2]: Aerodynamic particle size distribution by Next Generation Impactor, MF/GP/FF triple cosuspension MDIs (Example 1). It is filed as physicochemical. The note with it: for FPM values when MF strength was varied: FF 4.8 μg and GPBr 18 μg/actuation, MF 100-300 μg/actuation. As for the experimental part: The FF, GPBr, and MF materials were provided as a separate species of active agent particles, with each of the active agents provided as micronized, crystalline material. The co-suspension compositions were provided in pressurized metered dose inhalers (“MDI” or “MDIs”), with each formulation prepared to provide a delivered dose of 4.8 μg/actuation and 18 μg/actuation, respectively, of FF and GPBr. However, the amount of MF included in the three different compositions was varied, with compositions prepared to provide a delivered dose of MF selected from one of 100 μg/actuation, 200 μg/actuation, and 300 μg/actuation.
The suspending particles used in these co-suspensions were perforated microstructures prepared as described herein using a phospholipid material (DSPC). Drug crystals of GPBr (Boehringer Ingelheim, Petersberg, Va.) were micronized by air jet milling after receipt (median size, X50, ˜1.6 μm), but the FF (Inke, S.A., Barcelona Spain; X50˜1.4 μm) and MF (Hovione, Loures Portugal; X50˜1.6 μm) drug crystals were used as received. The Co-suspension formulations were prepared in HFA 134a propellant (Mexichem, S.A., Tlanepantla Mexico) and filled into 14 mL fluorinated ethylene polymer coated aluminum canisters (Presspart, Blackburn, UK), packaged with 50 μl valves, and delivered using an actuator with orifice size 0.3 mm (Bespak, King's Lynn, UK). Aerodynamic particle size distributions (aPSD) were obtained using the Next Generation Impactor (NGI) with the flow rate set to 30±1 LPM (n=3). Drug content was measured using ion-exchange HPLC with UV detection for FF and GP or reversed-phase HPLC with UV detection for MF.

`COc1ccc(C[C@@H](C)NC[C@H](O)c2ccc(O)c(NC=O)c2)cc1` (racemic) [FF, (±)-2-hydroxy-5-[(1RS)-1-hydroxy-2-[[(1RS)-2-(4-methoxyphenyl)-1-methylethyl]-amino]ethyl] formanilide]: the “Coformulation effect (aerosol performance) when formulated in the triple cosuspensions” value in series [1] is on record as “no coformulation effect was observed”. The “FPM values when MF strength was varied” value in series [2] is recorded as “remained virtually unchanged”. Regarding `C[N+]1(C)CCC(OC(=O)C(O)(c2ccccc2)C2CCCC2)C1` (stereo not shown) [GP, (3-[(cyclopentylhydroxyphenylacetyl)oxy]-1,1-dimethyl-, bromide)], in series [2], the “FPM values when MF strength was varied” value is “remained virtually unchanged”. Consider `C[C@@H]1C[C@H]2[C@@H]3CCC4=CC(=O)C=C[C@]4(C)[C@@]3(Cl)[C@@H](O)C[C@]2(C)[C@@]1(OC(=O)c1ccco1)C(=O)CCl` [MF, mometasone furoate], for which the “MF FPM dose proportionality, slope” value in series [2] (FPM = drug mass stages 3 through MOC, MF 100, 200, 300 μg/actuation, NGI 30 LPM, n=3) is recorded as 0.48.
